Data taken from US8999970B2, “Administration of an anti-obesity compound to individuals with renal impairment” (Arena Pharmaceuticals, Inc., priority 2010, dated 2015).
Entries after “also recorded” stand apart in the source; their conditions may differ.

Columns and labels:
[1] = Clinical trial APD356-016: plasma and urine pharmacokinetics of lorcaserin, M1 and M5 after a 10 mg dose in subjects with renal impairment; conditions: for Ae0-120 / fe0-120: urine; for AUC24 hr / Cmax / t1/2: 10 mg QD Authentic, Day 1
Method: The interaction of renal insufficiency with the pharmacokinetics, tolerability and safety of lorcaserin were evaluated in a formal PK study in subjects with renal impairment and in the populations studied in phase 2 and phase 3 clinical studies.
The pharmacokinetic properties of lorcaserin in subjects with varying degrees of renal impairment were evaluated in clinical trial APD356-016. At the time of study conduct and analysis, subjects were assigned to renal impairment groups based on creatinine clearance calculated using IDEAL body weight (Table 1). This calculation was used to avoid overestimation of creatinine clearance due to the excess body weight (overweight and obese subjects were enrolled in the trial). Summaries of pharmacokinetic properties by group assignment using creatinine clearance calculated using ACTUAL body weights are also provided in the sections that follow.
The FDA expects a reasonable margin between anticipated exposures and exposures that may produce toxicity. A reasonable margin can vary depending on the expected toxicity, but generally is an order of magnitude (10 times), but can sometimes be less for mild toxicity.
Table 13. Summary of Plasma Concentrations (ng/mL) of HSO3-APD356 Metabolite over Time by Group: Severe Renal Impairment Not Receiving Dialysis (see Table 13 next page)
Subject number 3140-505 was on dialysis and grouped in the end stage renal disease group.

[2] = Preclinical toxicology: M1 and M5 pharmacokinetics after oral administration of lorcaserin, 52 wk, mice
[3] = Preclinical toxicology: M1 and M5 pharmacokinetics after oral administration of lorcaserin, 52 wk, rats
[4] = 10 mg dose, Mild, actual BW groups
[5] = 10 mg dose, Mild, ideal BW groups
[6] = 10 mg dose, Moderate, actual BW groups
[7] = 10 mg dose, Moderate, ideal BW groups
[8] = 10 mg dose, Normal, actual BW groups
[9] = 10 mg dose, Normal, ideal BW groups
[10] = 10 mg dose, Severe N = 1, actual BW groups
[11] = 10 mg dose, Severe, ideal BW groups
[12] = lorcaserin 25 mg/kg/day oral, F
[13] = lorcaserin 25 mg/kg/day oral, M
[14] = lorcaserin 50 mg/kg/day oral, F
[15] = lorcaserin 50 mg/kg/day oral, M
[16] = lorcaserin 10 mg/kg/day oral, F
[17] = lorcaserin 10 mg/kg/day oral, M
[18] = lorcaserin 30 mg/kg/day oral, F
[19] = lorcaserin 30 mg/kg/day oral, M
[20] = lorcaserin 100 mg/kg/day oral, F
[21] = lorcaserin 100 mg/kg/day oral, M

With C[C@H]1CN(S(=O)(=O)O)CCc2ccc(Cl)cc21 [Compound M1, lorcaserin sulfamate] the “% AUC0-inf Extrapolated” value [1, 4] was 4.54%, the ClNR/F [1, 4] was 16.7 L/h and the T1/2z [1, 4] was 14.6 h. The “% AUC0-inf Extrapolated” value [1, 5] was 3.36%, the ClNR/F [1, 5] was 12.8 L/h and the T1/2z [1, 5] was 13.0 h. The “% AUC0-inf Extrapolated” value [1, 6] was 3.74%, the ClNR/F [1, 6] was 18.2 L/h and the T1/2z [1, 6] was 14.9 h. For the same compound, the “% AUC0-inf Extrapolated” value [1, 7] was 4.92%, the ClNR/F [1, 7] was 17.0 L/h and the T1/2z [1, 7] was 15.9 h. The “% AUC0-inf Extrapolated” value [1, 8] was 3.57%, the ClNR/F [1, 8] was 15.1 L/h and the T1/2z [1, 8] was 12.1 h. For the same compound, the “% AUC0-inf Extrapolated” value [1, 9] was 3.81%, the ClNR/F [1, 9] was 17.1 L/h and the T1/2z [1, 9] was 11.0 h. The “% AUC0-inf Extrapolated” value [1, 10] was 3.70%, the ClNR/F [1, 10] was 17.2 L/h and the T1/2z [1, 10] was 18.8 h. For the same compound, the “% AUC0-inf Extrapolated” value [1, 11] was 3.59%, the AUC0-inf [1, 11] was 23.6 µg·h/mL and the ClNR/F [1, 11] was 19.0 L/h. It also gave a T1/2z [1, 11] of 15.0 h, an Ae0-120 [1, 4] of 297 µg and a fe0-120 [1, 4] of 0.0352. It also gave an Ae0-120 [1, 5] of 326 µg, a fe0-120 [1, 5] of 0.0386 and an Ae0-120 [1, 6] of 304 µg. For the same compound, the fe0-120 [1, 6] was 0.0360, the Ae0-120 [1, 7] was 327 µg and the fe0-120 [1, 7] was 0.0387. For the same compound, the Ae0-120 [1, 8] was 257 µg, the fe0-120 [1, 8] was 0.0304 and the Ae0-120 [1, 9] was 185 µg. For the same compound, the fe0-120 [1, 9] was 0.0220, the Ae0-120 [1, 10] was 204 µg and the fe0-120 [1, 10] was 0.0242. The Ae0-120 [1, 11] was 280 µg, the fe0-120 [1, 11] was 0.0332 and the Removal by hemodialysis ([1]; ESRD) was “not removed; also recorded: not cleared”. The AUC24 hr ([1]; ESRD) was 3.65 µg·h/mL, the Cmax ([1]; ESRD) was 67.6 ng/mL and the AUC24 hr ([1]; Mild) was 1.94 µg·h/mL. The Cmax ([1]; Mild) was 43.5 ng/mL, the t1/2 ([1]; Mild) was 45.5 h and the AUC24 hr ([1]; Moderate) was 2.24 µg·h/mL. It also gave a Cmax ([1]; Moderate) of 34.1 ng/mL, a t1/2 ([1]; Moderate) of 70.8 h and an AUC24 hr ([1]; Normal) of 1.27 µg·h/mL. The Cmax ([1]; Normal) was 33.6 ng/mL, the t1/2 ([1]; Normal) was 36.2 h and the AUC24 hr ([1]; Severe) was 7.85 µg·h/mL. For the same compound, the Cmax ([1]; Severe) was 103 ng/mL, the t1/2 ([1]; Severe) was 220 h and the “Exposure (Geometric Mean Ratio for AUCinf) increase compared to normal subjects” value ([1]; mild (CLcr=51-80 mL/min)) was 1.6 fold. For the same compound, the “Terminal half-life prolonged by” value ([1]; mild renal impairment) was 26%, the “Exposure (Geometric Mean Ratio for AUCinf) increase compared to normal subjects” value ([1]; moderate (CLcr=31-50 mL/min)) was 2.3 fold and the “Terminal half-life prolonged by” value ([1]; moderate renal impairment) was 96%. For the same compound, the “Exposure (Geometric Mean Ratio for AUCinf) increase compared to normal subjects” value ([1]; severe (CLcr=5-30 mL/min)) was 16.7 fold, the “Maximum individual Cmax relative to the mean Cmax” value ([1]; severe renal impairment) was “more than five times” and the “Terminal half-life prolonged by” value ([1]; severe renal impairment) was 508%. For the same compound, the “AUC0-inf of subject 3285-009” value ([1]; severe renal impairment (ideal BW)) was 101 µg·h/mL, the Mean plasma concentration ([1]; severe renal impairment, eight individuals, day 1, 4 hours) was 99.5 ng/mL and the “Plasma concentration (Cmax) of subject 3285-009” value ([1]; severe renal impairment, day 1, 4 hours) was 542 ng/mL. It also gave an AUC0-inf ([2]; lorcaserin 5 mg/kg/day oral, F) of 75.2 µg·h/mL, an AUClast ([2]; lorcaserin 5 mg/kg/day oral, F) of 74.4 µg·h/mL and a Cmax ([2]; lorcaserin 5 mg/kg/day oral, F) of 14400 ng/mL. It also gave a tmax ([2]; lorcaserin 5 mg/kg/day oral, F) of 0.5 h, an AUC0-inf ([2]; lorcaserin 5 mg/kg/day oral, M) of 61.2 µg·h/mL and an AUClast ([2]; lorcaserin 5 mg/kg/day oral, M) of 59.7 µg·h/mL. It also gave a Cmax ([2]; lorcaserin 5 mg/kg/day oral, M) of 10800 ng/mL, a tmax ([2]; lorcaserin 5 mg/kg/day oral, M) of 0.5 h and an AUC0-inf [2, 12] of 221 µg·h/mL. For the same compound, the AUClast [2, 12] was 217 µg·h/mL, the Cmax [2, 12] was 39800 ng/mL and the tmax [2, 12] was 0.5 h. It also gave an AUClast [2, 13] of 223 µg·h/mL, a Cmax [2, 13] of 25400 ng/mL and a tmax [2, 13] of 0.5 h. For the same compound, the AUC0-inf [2, 14] was 356 µg·h/mL, the AUClast [2, 14] was 345 µg·h/mL and the Cmax [2, 14] was 49100 ng/mL. For the same compound, the tmax [2, 14] was 0.5 h, the AUC0-inf [2, 15] was 319 µg·h/mL and the AUClast [2, 15] was 308 µg·h/mL. For the same compound, the Cmax [2, 15] was 42700 ng/mL, the tmax [2, 15] was 0.5 h and the AUC0-inf [3, 16] was 200 µg·h/mL. For the same compound, the AUClast [3, 16] was 193 µg·h/mL, the Cmax [3, 16] was 16300 ng/mL and the tmax [3, 16] was 1.0 h. For the same compound, the AUC0-inf [3, 17] was 175 µg·h/mL, the AUClast [3, 17] was 170 µg·h/mL and the Cmax [3, 17] was 15400 ng/mL. For the same compound, the tmax [3, 17] was 1.0 h, the AUC0-inf [3, 18] was 443 µg·h/mL and the AUClast [3, 18] was 412 µg·h/mL. It also gave a Cmax [3, 18] of 31700 ng/mL, a tmax [3, 18] of 4.0 h and an AUC0-inf [3, 19] of 338 µg·h/mL. For the same compound, the AUClast [3, 19] was 319 µg·h/mL, the Cmax [3, 19] was 23900 ng/mL and the tmax [3, 19] was 1.0 h. It also gave an AUC0-inf [3, 20] of 1480 µg·h/mL, an AUClast [3, 20] of 1050 µg·h/mL and a Cmax [3, 20] of 63700 ng/mL. The tmax [3, 20] was 2.0 h, the AUC0-inf [3, 21] was 927 µg·h/mL and the AUClast [3, 21] was 633 µg·h/mL. The Cmax [3, 21] was 36000 ng/mL and the tmax [3, 21] was 0.5 h.
